Where two headings read alike, the source gives them in different places.
Columns and labels:
[1] = cited from earlier work
NT CB-NK cells = assay: Dimerizer effect on non-transduced cells (annexin-V/7AAD staining); format: cell-based; conditions: 10 nM dimerizer
From the text: iC9/CAR.19/IL15+ CB-NK cells are eliminated after activation of the suicide gene by exposure to a small-molecule dimerizer. To counteract the possibility of excessive toxicity mediated by the release of inflammatory cytokines by transduced CB-NK cells or uncontrolled NK cell growth, we incorporated a suicide gene based on the inducible caspase-9 gene in the construct (Di et al., 2011). […] The suicide gene was also effective in vivo.

GVHD = conditions: patients who had received Capsase-9+ T cells; cited from earlier work
CLL = conditions: alone or in combination with a corticosteroid; cited from earlier work
[2] = cited from earlier work; remark: listed apart in the source
[3] = molecular target: CD19 on CD19+ Raji cells and primary CLL cells (UniProt P15391); assay: cell-based or functional assay
Chain of UniProt P15391 (P15391 20-556 limits assumed): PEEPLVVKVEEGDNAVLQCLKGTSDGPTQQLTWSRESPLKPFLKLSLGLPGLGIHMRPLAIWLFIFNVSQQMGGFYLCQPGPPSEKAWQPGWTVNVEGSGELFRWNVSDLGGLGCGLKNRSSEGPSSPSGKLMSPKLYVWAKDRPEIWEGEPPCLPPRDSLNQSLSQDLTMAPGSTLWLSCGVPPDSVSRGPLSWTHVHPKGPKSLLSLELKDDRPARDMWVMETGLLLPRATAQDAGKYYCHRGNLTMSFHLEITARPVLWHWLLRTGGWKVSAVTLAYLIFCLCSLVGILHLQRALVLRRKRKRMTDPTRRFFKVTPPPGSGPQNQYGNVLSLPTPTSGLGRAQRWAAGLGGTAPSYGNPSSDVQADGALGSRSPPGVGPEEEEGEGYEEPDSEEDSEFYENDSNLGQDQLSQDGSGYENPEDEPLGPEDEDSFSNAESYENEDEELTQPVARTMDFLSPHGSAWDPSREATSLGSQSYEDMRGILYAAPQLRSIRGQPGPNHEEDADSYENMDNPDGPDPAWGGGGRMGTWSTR

CC[C@H](C(=O)N1CCCC[C@H]1C(=O)O[C@H](CCc1ccc(OC)c(OC)c1)c1cccc(OCC(=O)NCCNC(=O)COc2cccc([C@@H](CCc3ccc(OC)c(OC)c3)OC(=O)[C@@H]3CCCCN3C(=O)[C@@H](CC)c3cc(OC)c(OC)c(OC)c3)c2)c1)c1cc(OC)c(OC)c(OC)c1 [AP1903]
plasma concentrations ([1]; 0.01 mg/kg to 1.0 mg/kg dose range): 10 to 1275 ng/mL
plasma level, percent of maximum ([1]; 0.5 hrs post dose): 18%
plasma level, percent of maximum ([1]; 2 hrs post dose): 7%
viability of NT CB-NK cells (NT CB-NK cells): no effect
time to response of GVHD (GVHD): 24 to 48 h

O=C(O)CCCc1ccc(N(CCCl)CCCl)cc1 [chlorambucil]
complete remission rates (CLL): 5-20%
overall response rate (CLL): 50-70%

RhIL-15: exogenous recombinant human IL-15
maximum serum concentration (Cmax) ([2]; 0.3 μg/kg per day): 1,260±350 pg/mL
maximum serum concentration (Cmax) ([2]; 1.0 μg/kg per day): 15,900±1,900 pg/mL
maximum serum concentration (Cmax) ([2]; 3.0 μg/kg per day): 43,800±18,300 pg/mL
dose-limiting toxicities ([2]; 3.0 and 1.0 μg/kg per day): grade 3 hypotension, thrombocytopenia, and elevations of ALT and AST
maximum-tolerated dose ([2]; bolus infusions for 12 consecutive days): 0.3 μg/kg per day
immune cell activation ([2]; patients): activate NK cells, monocytes, γδ, and CD8 T cells

anti-CD19 chimeric antigen receptor (scFv against CD19, human IgG CH2-CH3 hinge, CD28 transmembrane domain, CD28.CD3zeta signaling endodomain) expressed on cord blood NK cells from the iC9/CAR.19/IL15 retroviral vector
IL15 release in culture supernatant with CD19+ CLL B cells (pg/mL/10^6 cells) [3]: 27.6
